{
  "source": "patent US20250345483A1",
  "about": "“WIDE RANGE SYNTHETIC PEPTIDE NUCLEIC ACIDS AND THEIR APPLICATIONS” (Carilion Clinic, priority 2024, published 2025)",
  "test_system": "gentamicin-resistant P. aeruginosa, Pa383-ΔrahU::GM",
  "experiment": "Biofilm biomass, aqueous or dried onto 96-well plates",
  "assay_type": "cell-based, Pseudomonas aeruginosa",
  "details": "32 h incubation",
  "experimental": "An equimolar (10 μM per antisense-PNA) cocktail of the antisense-PNAs rsmA 0, amrZ 0, and rpoS 0 with 50% methanol (MeOH) (total volume: 60 μL) was dried onto a 96-well clear flat bottom polystyrene tissue culture-treated microplate in a Fisherbrand™ Isotemp™ Digital Dry Bath/Block Heater at 37° C. 60 μL of 100 μg/mL gentamicin was also dried onto wells. Gentamicin-resistant P. aeruginosa, Pa383-ΔrahU::GM was subcultured as described above (Rao, J. et al., 2011)\nBiofilms were stained with 175 μL 0.1% crystal violet (CV), rinsed with sterile water until the water ran clear, solubilized in 100 μL of 33% glacial acetic acid (GAA), and absorbance was measured using a spectrophotometer at 590 nm (Wilson, C. et al., 2017).",
  "data": [
    {"substance": "gentamicin", "values": [
      {"measurement": "average biofilm biomass", "setting": "aq, vs untreated in M9+ media", "result": "no statistically significant difference"},
      {"measurement": "average biofilm biomass", "setting": "dried in MeOH, vs dried MeOH control wells", "result": "no statistically significant difference"}
    ]}
  ]
}
